For orientation: EC50 means the concentration giving half of the maximal effect. Read a high EC50 as lower potency in that assay.

The target in assay [1] is Olfr1364 (Mus musculus, UniProt Q5SZS9). Description: 1-octen-3-ol concentration-dependent activation of Olfr1364: OR-dependent cAMP accumulation in a cell-based assay (functional dose-response). The conditions noted are these: agonist, mouse Olfr1364 (SEQ ID NO: 69), N-terminal FLAG/Rho/Lucy tags, HEK 293T cells, Gαolf, FIG. 6. An excerpt:
(§1) The detection method pertains to OR-dependent accumulation of cAMP in said cells, as a result of OR activation by 1-octen-3-ol.
(§2) In a further embodiment, to complete the deorphanization process, the candidate OR genes are further expressed in vitro for confirmation of activity against the compounds used to isolate the olfactory sensory neurons and other structurally-related compounds of interest. […]
(§3) Neurons that were activated by DMTS were further isolated for full transcriptome analysis to identify the responsive odorant receptor. […] Amplified cDNA was then used to generate an Illumina cDNA library for Next-Generation-Sequencing and the generation of 100 base pair single read sequences. […]
(In general: Cyclic AMP is a second messenger, typically raised through Gs and lowered through Gi signalling.)

For assay [2], the target named is Olfr398 (Mus musculus, UniProt Q8VFY0). Description: 1-octen-3-ol concentration-dependent activation of Olfr398: OR-dependent cAMP accumulation in a cell-based assay (functional dose-response). The following applies: agonist, mouse Olfr398 (SEQ ID NO: 65), N-terminal FLAG/Rho/Lucy tags, HEK 293T cells, Gαolf, FIG. 6.
Olfr398, sequence (Q8VFY0 1-314): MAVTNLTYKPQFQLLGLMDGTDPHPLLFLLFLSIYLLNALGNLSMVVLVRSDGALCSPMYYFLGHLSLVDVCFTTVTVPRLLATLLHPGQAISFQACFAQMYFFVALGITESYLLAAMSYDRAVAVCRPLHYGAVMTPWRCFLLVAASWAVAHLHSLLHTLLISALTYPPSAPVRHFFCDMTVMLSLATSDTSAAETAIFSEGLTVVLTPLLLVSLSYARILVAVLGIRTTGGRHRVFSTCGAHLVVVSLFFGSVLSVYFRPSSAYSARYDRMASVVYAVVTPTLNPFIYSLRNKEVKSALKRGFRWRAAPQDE
Assay [3] has as its target Olfr120 (Mus musculus, UniProt Q7TRJ4). Description: 1-octen-3-ol concentration-dependent activation of Olfr120: OR-dependent cAMP accumulation in a cell-based assay (functional dose-response). The following applies: agonist, mouse Olfr120 (SEQ ID NO: 67), N-terminal FLAG/Rho/Lucy tags, HEK 293T cells, Gαolf, FIG. 6.
Excerpt: as §1, §2, §3

In assay [4] the target is Olfr93 (Mus musculus, UniProt B9EI77). As to the kind of experiment: 1-octen-3-ol concentration-dependent activation of Olfr93: OR-dependent cAMP accumulation in a cell-based assay (functional dose-response). The following applies: agonist, mouse Olfr93 (SEQ ID NO: 63), N-terminal FLAG/Rho/Lucy tags, HEK 293T cells, Gαolf, FIG. 6.
Olfr93, sequence (B9EI77 1-312): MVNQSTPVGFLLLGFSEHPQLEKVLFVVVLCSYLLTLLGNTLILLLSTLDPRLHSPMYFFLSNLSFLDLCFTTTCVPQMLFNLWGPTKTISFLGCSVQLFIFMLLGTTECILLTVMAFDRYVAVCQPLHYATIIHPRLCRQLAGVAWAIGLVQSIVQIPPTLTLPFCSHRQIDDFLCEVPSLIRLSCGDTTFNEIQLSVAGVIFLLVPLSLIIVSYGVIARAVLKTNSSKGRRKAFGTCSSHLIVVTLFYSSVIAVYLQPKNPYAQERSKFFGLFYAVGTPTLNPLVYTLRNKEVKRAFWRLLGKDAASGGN
Excerpt: as §1, §2, §3

The target of assay [5] is Olfr1126 (Mus musculus, UniProt Q7TR49). As to the kind of experiment: 3-hydroxy-3-methyl-hexanoic acid concentration-dependent activation of Olfr1126: OR-dependent cAMP accumulation in a cell-based assay (functional dose-response). The conditions noted are these: agonist, mouse Olfr1126 (SEQ ID NO: 46), N-terminal FLAG/Rho/Lucy tags, HEK 293T cells, Gαolf, FIG. 9.
Olfr1126 (Mus musculus, UniProt Q7TR49), sequence (Q7TR49 1-314): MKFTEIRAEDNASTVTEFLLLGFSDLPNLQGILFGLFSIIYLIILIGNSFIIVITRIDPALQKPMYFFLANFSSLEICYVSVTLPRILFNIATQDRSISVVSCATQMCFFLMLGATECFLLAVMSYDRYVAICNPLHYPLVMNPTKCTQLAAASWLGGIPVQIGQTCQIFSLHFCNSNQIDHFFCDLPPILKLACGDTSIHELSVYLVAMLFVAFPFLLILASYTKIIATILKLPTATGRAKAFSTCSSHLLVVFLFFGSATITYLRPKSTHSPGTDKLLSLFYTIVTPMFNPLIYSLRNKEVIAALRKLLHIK
Excerpt: (§4) The detection method pertains to OR-dependent accumulation of cAMP in said cells, as a result of OR activation by 3-hydroxy-3-methyl-hexanoic acid.
as §2, §3

In assay [6] the test system is Olfr1126. Description: Cell-based OR activation assay (cAMP accumulation). The following applies: FIG. 9; OR-dependent accumulation of cAMP. On the set-up: species or system mouse.
Excerpt: as §4
(§5) In a further embodiment, to complete the deorphanization process, the candidate OR genes are further expressed in vitro for confirmation of activity against the compounds used to isolate the olfactory sensory neurons and other structurally-related compounds of interest. The mouse receptors identified from isolated olfactory neurons that respond to geonol, DMTS, 1-octen-3-ol, butyric acid, 3-methyl-2-hexenoic acid, 3-hydroxy-3-methyl-hexanoic acid or transpirol are modified at their N-terminus with short polypeptide sequences (e.g., FLAG® (SEQ ID NO: 48), Rho (SEQ ID NO: 50; 20 first amino acids of the bovine rhodopsin receptor), and/or Lucy (SEQ ID NO: 52; cleavable leucine-rich signal peptide sequence) tags), transiently expressed in HEK 293T cells, and stimulated separately with geonol, DMTS, 1-octen-3-ol, butyric acid, 3-methyl-2-hexenoic acid, 3-hydroxy-3-methyl-hexanoic acid or transpirol to confirm their identity as bona fide geonol, dimethyl trisulfide (DMTS), 1-octen-3-ol, butyric acid, 3-methyl-2-hexenoic acid, 3-hydroxy-3-methyl-hexanoic acid or transpirol receptors. In a further embodiment, an RTP1 gene can also be expressed in the cell lines whether through activation of the endogenous RTP1 gene or through transformation. […]

Assay [7] has as its target T1, OR2W1 (Homo sapiens, UniProt Q9Y3N9, M81V).
T1 sequence (Q9Y3N9 1-320 M81V): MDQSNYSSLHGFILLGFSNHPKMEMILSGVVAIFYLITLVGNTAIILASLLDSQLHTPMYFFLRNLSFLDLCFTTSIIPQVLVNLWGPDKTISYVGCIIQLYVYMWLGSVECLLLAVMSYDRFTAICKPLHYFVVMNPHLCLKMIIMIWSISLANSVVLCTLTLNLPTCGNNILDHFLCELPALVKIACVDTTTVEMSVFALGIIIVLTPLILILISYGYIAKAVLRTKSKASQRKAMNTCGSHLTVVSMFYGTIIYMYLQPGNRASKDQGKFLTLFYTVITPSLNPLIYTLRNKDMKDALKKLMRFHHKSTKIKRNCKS
As to the kind of experiment: Cell-based OR activation assay (cAMP accumulation). The following applies: FIG. 7 and 8; OR-dependent accumulation of cAMP. On the set-up: expressed in transfected cells; host or cells: HEK293T expressing human Golf.
Excerpt: (§6) The detection method pertains to OR-dependent accumulation of cAMP in said cells, as a result of OR activation by transpirol.
(§7) The detection method pertains to OR-dependent accumulation of cAMP in said cells, as a result of OR activation by 3-methyl-2-hexenoic acid.
as §2
(§8) In the second method, a panel of odorant receptors comprising the 400 putatively functional human receptor repertoire were transfected into a cultured human HEK293T cell line described in WO2014/210585 expressing Human olfactory G-protein alpha subunit (Golf—SEQ. ID No. 49) and coupled to a cyclicAMP reporter. Said panel of in vitro odorant receptors were exposed to MCSs and the level of cAMP signal was measured for each receptor. […]

Assay [8] deals with Olfr263 (Mus musculus, UniProt Q7TQT8). As to the kind of experiment: Concentration-dependent activation of Olfr263: OR-dependent cAMP accumulation in a cell-based assay (functional dose-response). The following applies: mouse Olfr263 (SEQ ID NO: 22), N-terminal FLAG/Rho/Lucy tags, HEK 293T cells, Gαolf.
Olfr263 (Mus musculus, UniProt Q7TQT8), sequence (Q7TQT8 1-317): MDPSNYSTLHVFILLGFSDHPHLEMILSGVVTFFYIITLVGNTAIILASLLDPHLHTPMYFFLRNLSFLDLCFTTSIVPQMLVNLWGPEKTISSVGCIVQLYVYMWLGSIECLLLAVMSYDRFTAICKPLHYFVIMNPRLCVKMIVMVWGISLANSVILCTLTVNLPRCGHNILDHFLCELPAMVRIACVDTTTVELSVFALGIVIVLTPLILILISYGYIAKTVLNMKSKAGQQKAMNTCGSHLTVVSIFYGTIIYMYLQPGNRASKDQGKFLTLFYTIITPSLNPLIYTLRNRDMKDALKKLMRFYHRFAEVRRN
Excerpt: as §6, §7, §2, §3

In assay [9] the target is Olfr641 (Mus musculus, UniProt Q8VGX6). As to the kind of experiment: 3-methyl-2-hexenoic acid concentration-dependent activation of Olfr641: OR-dependent cAMP accumulation in a cell-based assay (functional dose-response). The conditions noted are these: agonist, mouse Olfr641 (SEQ ID NO: 34), N-terminal FLAG/Rho/Lucy tags, HEK 293T cells, Gαolf, FIG. 8.
Olfr641 (Mus musculus, UniProt Q8VGX6), sequence (Q8VGX6 1-312): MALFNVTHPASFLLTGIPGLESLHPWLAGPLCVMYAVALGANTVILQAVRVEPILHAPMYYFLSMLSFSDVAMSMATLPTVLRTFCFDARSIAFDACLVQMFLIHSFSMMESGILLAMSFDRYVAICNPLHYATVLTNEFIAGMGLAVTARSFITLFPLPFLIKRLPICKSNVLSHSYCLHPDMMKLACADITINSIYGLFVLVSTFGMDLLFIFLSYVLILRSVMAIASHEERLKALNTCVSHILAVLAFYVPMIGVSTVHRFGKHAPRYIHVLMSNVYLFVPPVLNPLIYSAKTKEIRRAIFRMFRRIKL
Excerpt: as §7, §2, §3

Assay [10] addresses T2, OR51I2 (Homo sapiens, UniProt Q9H344).
T2 construct: expressed in transfected cells; host or cells: HEK293T
As to the kind of experiment: 3-methyl-2-hexenoic acid concentration-dependent activation of OR51I2: OR-dependent cAMP accumulation in a cell-based assay (functional dose-response). The conditions noted are these: agonist, human OR51I2 (SEQ ID NO: 20), HEK293T cells expressing Golf, FIG. 8.
Excerpt: as §7, §2, §8

For assay [11], the target named is T3, OR5112 (Homo sapiens, UniProt Q9H344).
T3 construct: expressed in transfected cells; host or cells: HEK293T expressing human Golf
T3 sequence (Q9H344 whole entry): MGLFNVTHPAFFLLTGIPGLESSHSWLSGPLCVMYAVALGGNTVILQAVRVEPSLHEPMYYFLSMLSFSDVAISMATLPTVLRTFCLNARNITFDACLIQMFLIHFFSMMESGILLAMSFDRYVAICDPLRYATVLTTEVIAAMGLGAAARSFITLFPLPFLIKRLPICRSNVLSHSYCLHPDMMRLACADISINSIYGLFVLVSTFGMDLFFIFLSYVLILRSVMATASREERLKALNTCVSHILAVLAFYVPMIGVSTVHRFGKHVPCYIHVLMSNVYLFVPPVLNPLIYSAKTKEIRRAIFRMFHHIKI
Description: Cell-based OR activation assay (cAMP accumulation). The following applies: FIG. 8; OR-dependent accumulation of cAMP.
Excerpt: as §7, §2, §8

Assay [12] has as its system Olfr263. As to the kind of experiment: Cell-based OR activation assay (cAMP accumulation). On the set-up: species or system mouse. The conditions noted are these: FIG. 7 and 8; OR-dependent accumulation of cAMP.
Excerpt: as §6, §7
as §5, with “receptors.” for “receptors. In a further embodiment, an RTP1 gene can also be expressed in the cell lines whether through activation of the endogenous RTP1 gene or through transformation.”

Assay [13] deals with T1, OR2W1. Description: Concentration-dependent activation of OR2W1: OR-dependent cAMP accumulation in a cell-based assay (functional dose-response). Also noted: expressed in transfected cells; host or cells: HEK293T. The conditions noted are these: human OR2W1 (SEQ ID NO: 2), HEK293T cells expressing Golf.
Excerpt: as §6, §7, §2, §8

The test system of assay [14] is Olfr641. Description: Cell-based OR activation assay (cAMP accumulation). The following applies: FIG. 8; OR-dependent accumulation of cAMP. On the set-up: species or system mouse.
Excerpt: as §7, §5

Assay [15] deals with Olfr96 (Mus musculus, UniProt Q0VBG2). As to the kind of experiment: Geonol concentration-dependent activation of Olfr96: OR-dependent cAMP accumulation in a cell-based assay (functional dose-response). The conditions noted are these: agonist, mouse Olfr96 (SEQ ID NO: 28), N-terminal FLAG/Rho/Lucy tags, HEK 293T cells, Gαolf, FIG. 5.
Olfr96, sequence (Q0VBG2 1-313): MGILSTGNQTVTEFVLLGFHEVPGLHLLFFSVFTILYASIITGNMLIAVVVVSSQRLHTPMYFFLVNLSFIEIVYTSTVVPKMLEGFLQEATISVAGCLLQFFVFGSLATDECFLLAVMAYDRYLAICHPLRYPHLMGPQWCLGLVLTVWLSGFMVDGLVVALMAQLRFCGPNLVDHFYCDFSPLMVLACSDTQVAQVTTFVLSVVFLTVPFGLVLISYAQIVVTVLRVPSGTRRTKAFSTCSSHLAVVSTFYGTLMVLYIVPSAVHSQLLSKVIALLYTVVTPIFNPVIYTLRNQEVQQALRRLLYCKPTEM
Excerpt: (§9) The detection method pertains to OR-dependent accumulation of cAMP in said cells, as a result of OR activation by geonol.
as §2, §3

For assay [16], the target named is Olfr1487 (Mus musculus, UniProt Q8VFQ6). As to the kind of experiment: Geonol concentration-dependent activation of Olfr1487: OR-dependent cAMP accumulation in a cell-based assay (functional dose-response). The conditions noted are these: agonist, mouse Olfr1487 (SEQ ID NO: 42), N-terminal FLAG/Rho/Lucy tags, HEK 293T cells, Gαolf, FIG. 5.
Olfr1487, sequence (Q8VFQ6 1-315): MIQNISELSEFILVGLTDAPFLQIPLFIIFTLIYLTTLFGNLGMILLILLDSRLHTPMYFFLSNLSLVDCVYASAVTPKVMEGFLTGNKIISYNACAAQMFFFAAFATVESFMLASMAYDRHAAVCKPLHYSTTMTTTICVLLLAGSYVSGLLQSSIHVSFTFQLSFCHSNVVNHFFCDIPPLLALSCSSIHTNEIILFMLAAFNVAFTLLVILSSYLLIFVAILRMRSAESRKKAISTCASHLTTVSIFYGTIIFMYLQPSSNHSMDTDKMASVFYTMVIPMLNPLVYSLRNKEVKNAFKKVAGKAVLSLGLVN
Excerpt: as §9, §2, §3

The target in assay [17] is Olfr339 (Mus musculus, UniProt Q8VGK8). As to the kind of experiment: Geonol concentration-dependent activation of Olfr339: OR-dependent cAMP accumulation in a cell-based assay (functional dose-response). The following applies: agonist, mouse Olfr339 (SEQ ID NO: 44), N-terminal FLAG/Rho/Lucy tags, HEK 293T cells, Gαolf, FIG. 5.
Olfr339, sequence (Q8VGK8 1-309): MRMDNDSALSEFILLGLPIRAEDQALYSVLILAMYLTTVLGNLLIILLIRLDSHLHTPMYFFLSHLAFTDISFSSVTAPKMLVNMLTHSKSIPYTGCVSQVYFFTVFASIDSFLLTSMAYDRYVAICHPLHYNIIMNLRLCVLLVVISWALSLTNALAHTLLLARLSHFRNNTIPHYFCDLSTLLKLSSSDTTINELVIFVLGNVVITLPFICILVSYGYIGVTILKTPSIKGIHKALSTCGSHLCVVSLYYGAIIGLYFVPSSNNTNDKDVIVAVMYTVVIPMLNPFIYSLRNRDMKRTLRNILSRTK
Excerpt: as §9, §2, §3

The target in assay [18] is OR11A1 (Homo sapiens, UniProt Q9GZK7). As to the kind of experiment: Geonol concentration-dependent activation of OR11A1: OR-dependent cAMP accumulation in a cell-based assay (functional dose-response). On the set-up: expressed in transfected cells; host or cells: HEK293T. The conditions noted are these: agonist, human OR11A1 (SEQ ID NO: 12), HEK293T cells expressing Golf, FIG. 5.
OR11A1, sequence (Q9GZK7 whole entry): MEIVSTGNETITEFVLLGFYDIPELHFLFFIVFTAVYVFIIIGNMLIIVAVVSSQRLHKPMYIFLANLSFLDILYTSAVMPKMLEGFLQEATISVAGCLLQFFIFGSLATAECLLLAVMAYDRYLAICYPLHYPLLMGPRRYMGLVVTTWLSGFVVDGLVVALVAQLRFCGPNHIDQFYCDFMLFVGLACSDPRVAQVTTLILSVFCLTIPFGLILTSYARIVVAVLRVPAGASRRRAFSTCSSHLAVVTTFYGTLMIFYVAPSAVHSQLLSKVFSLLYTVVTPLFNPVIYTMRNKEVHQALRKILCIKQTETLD
Excerpt: as §9, §2, §8

Assay [19] has as its target Olfr1322 (Mus musculus, UniProt Q7TQW3). Description: Geonol concentration-dependent activation of Olfr1322: OR-dependent cAMP accumulation in a cell-based assay (functional dose-response). The conditions noted are these: agonist, mouse Olfr1322 (SEQ ID NO: 73), N-terminal FLAG/Rho/Lucy tags, HEK 293T cells, Gαolf, FIG. 5.
Excerpt: as §9, §2, §3

Assay [20] has as its target Olfr46 (Mus musculus, UniProt Q2VPD7). Description: Transpirol concentration-dependent activation of Olfr46: OR-dependent cAMP accumulation in a cell-based assay (functional dose-response). The conditions noted are these: agonist, mouse Olfr46 (SEQ ID NO: 75), N-terminal FLAG/Rho/Lucy tags, HEK 293T cells, Gαolf, FIG. 7.
Excerpt: as §6, §2, §3

Assay [21] deals with Olfr46. As to the kind of experiment: Cell-based OR activation assay (cAMP accumulation). On the set-up: species or system mouse. The following applies: FIG. 7; OR-dependent accumulation of cAMP.
Excerpt: as §6, §5

Setting [22] is: agonist 3-methyl-2-hexenoic acid, FIG. 8.

Olfr46 (Mus musculus, UniProt Q2VPD7), sequence (Q2VPD7 1-310): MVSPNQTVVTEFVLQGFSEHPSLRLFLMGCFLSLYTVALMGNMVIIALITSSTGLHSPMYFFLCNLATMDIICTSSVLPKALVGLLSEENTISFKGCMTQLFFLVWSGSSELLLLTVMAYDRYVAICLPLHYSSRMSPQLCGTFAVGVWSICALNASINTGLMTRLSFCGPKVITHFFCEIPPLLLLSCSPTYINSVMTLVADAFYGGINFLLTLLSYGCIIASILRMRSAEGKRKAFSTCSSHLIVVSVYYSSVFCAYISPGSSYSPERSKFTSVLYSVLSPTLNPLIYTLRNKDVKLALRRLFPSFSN
Olfr120, sequence (Q7TRJ4 1-321): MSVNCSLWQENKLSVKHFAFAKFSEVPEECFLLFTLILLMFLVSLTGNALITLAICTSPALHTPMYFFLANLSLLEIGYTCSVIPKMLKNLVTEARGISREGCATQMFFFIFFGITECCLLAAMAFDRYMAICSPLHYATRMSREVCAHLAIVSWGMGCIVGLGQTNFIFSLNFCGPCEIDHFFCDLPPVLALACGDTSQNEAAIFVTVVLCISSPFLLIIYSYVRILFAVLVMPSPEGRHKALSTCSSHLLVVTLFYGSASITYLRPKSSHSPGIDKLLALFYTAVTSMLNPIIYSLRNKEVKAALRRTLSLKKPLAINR
Olfr1322, sequence (Q7TQW3 1-310): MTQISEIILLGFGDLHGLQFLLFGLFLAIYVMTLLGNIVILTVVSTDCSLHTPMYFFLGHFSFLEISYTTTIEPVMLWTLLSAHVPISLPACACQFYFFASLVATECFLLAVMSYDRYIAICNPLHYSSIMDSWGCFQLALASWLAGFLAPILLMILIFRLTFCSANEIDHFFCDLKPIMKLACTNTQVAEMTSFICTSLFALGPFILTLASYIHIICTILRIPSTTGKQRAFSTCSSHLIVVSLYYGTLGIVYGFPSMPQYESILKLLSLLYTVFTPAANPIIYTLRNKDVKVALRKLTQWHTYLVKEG
Olfr1364, sequence (Q5SZS9 9-314): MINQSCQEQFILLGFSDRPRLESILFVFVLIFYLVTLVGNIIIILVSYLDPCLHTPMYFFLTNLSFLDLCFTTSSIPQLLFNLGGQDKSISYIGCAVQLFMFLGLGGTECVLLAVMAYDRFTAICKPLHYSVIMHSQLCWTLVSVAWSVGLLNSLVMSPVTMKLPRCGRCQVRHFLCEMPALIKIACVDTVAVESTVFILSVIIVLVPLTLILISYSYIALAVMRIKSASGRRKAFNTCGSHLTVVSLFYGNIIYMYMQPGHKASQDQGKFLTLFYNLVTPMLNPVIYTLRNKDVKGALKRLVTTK
T2 sequence (Q9H344 whole entry): as the sequence (Q9H344 whole entry) above

As to `C=CC(O)CCCCC` (stereo not shown) [1-Octen-3-ol, 1-octen-3-ol], the EC50 turned out to be 113 µM in assay [1], 11.4 µM in assay [2], 26 µM in assay [3] and 0.69 µM in [4].
As for `CCCC(C)(O)CC(=O)O` (stereo not shown) [3-hydroxy-3-methyl-hexanoic acid], it took 40.3 µM to reach a half-maximal effect in [5] (EC50). In assay [6], the “activation of Olfr1126” value was “concentration-dependent and specific activation”.
In the case of `CCCC(C)=CC(=O)O` [3-methyl-2-hexenoic acid], the “activation of OR2W1” value in assay [7] is “concentration-dependent and specific activation”. In addition, the concentration for a half-maximal effect (EC50) in assay [8] (setting [22]) is 183 µM; in assay [9] it was 1.75 µM; in [10], 13.9 µM; in assay [13] (setting [22]) it was 214 µM. In assay [11], the “activation of OR5112” value is “concentration-dependent and specific activation”. Further, the “activation of Olfr263” value in assay [12] is “concentration-dependent and specific activation”. Moreover, the “activation of Olfr641” value in [14] is “concentration-dependent and specific activation”.
With `CC1CCCC2(C)CCCCC12O` [Geonol, (4S,4aS,8aR)-4,8a-Dimethyl-1,2,3,4,5,6,7,-octahydronaphthalen-4a-ol], the EC50 is 0.0168 µM in assay [15]; 3.58 µM in assay [16]; 1.28 µM in assay [17]; 2.8 µM in assay [18]; 37.5 µM in [19].
For the compound `CCCC(C)(S)CCO` (stereo not shown) [Transpirol, 3-methyl-3-sulphanylhexanol], the half-maximal effective concentration (EC50) in assay [8] (agonist transpirol, FIG. 7) was found to be 2.3 µM; in assay [13] (agonist transpirol, FIG. 7) it was 3.1 µM; in [20] it was 170 µM.
With `CCCC(C)(S)CCO` (stereo not shown) [transpirol, 3-methyl-3-sulfanylhexanol], the “activation of OR2W1” value in [7] is “concentration-dependent and specific activation”. For the same compound, the “activation of Olfr263” value in [12] was “concentration-dependent and specific activation”. Also, in assay [21], the “activation of Olfr46” value is “concentration-dependent and specific activation”.

For the origin of these results see patent US20250327793A1, “METHODS OF IDENTIFYING COMPOUNDS THAT MODULATE LAUNDRY MALODOR, MOLDY MALODOR, OR SWEAT MALODOR” (Firmenich SA, priority 2017, published 2025).
